According to US20150119476A1, “DEVELOPMENT, CHARACTERIZATION, AND USE OF AN ANTI-HYPUSINATED eIF5A ANTIBODY TO DIAGNOSE DIABETES” (Indiana University Research and Technology Corp., priority 2013, published 2015):

Experiments:
DHS = target: T1, DHS (Homo sapiens, UniProt P49366); assay: in vitro hypusination reaction of recombinant eIF5A with DHS, DHH, spermidine and GC7, immunoblot read-out; type: biochemical
T1 construct: His6 (N); made in house; host or cells: E. coli
T1 sequence (P49366 1-369): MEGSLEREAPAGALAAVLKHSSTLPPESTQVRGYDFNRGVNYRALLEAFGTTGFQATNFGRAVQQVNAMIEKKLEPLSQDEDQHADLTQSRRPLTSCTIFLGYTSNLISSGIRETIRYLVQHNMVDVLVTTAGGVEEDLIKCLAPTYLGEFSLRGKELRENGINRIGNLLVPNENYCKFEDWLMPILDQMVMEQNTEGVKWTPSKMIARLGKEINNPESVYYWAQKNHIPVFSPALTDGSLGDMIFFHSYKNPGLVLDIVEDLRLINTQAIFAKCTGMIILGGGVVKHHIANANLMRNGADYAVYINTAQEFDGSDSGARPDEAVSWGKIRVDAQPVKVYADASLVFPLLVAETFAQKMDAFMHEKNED
Description: Reactions in vitro—For in vitro experiments, eIF5A protein was purified from E. coli as a GST fusion, after which the GST tag was proteolytically removed. DHS protein was purified from E. coli as an N-terminal His6 fusion. Purified human DHH protein was purchased from OriGene. The hypusination reactions in vitro proceeded as previously published.
(§1) Antibodies and immunoblotting—The rabbit polyclonal antibody IU-88 against hypusinated human eIF5A was generated in rabbits using the synthetic hypusine-containing peptide C-Ahx-STSKTG[hypusine]HGHAKV-amide (SEQ ID NO. 1) by contract to 21st Century Biochemicals. Monoclonal mouse pan-anti-eIF5A antibody was from BD Biosciences and anti-actin antibody was from MP Biomedicals. Immunoblot analysis was visualized using a LiCor Odyssey fluorescence system following electrophoresis on a 4-20% SDS polyacrylamide gel. Primary antibodies were diluted 1:1500 (IU-88) and 1:10,000 (anti-pan-eIF5A).
In order to determine if IU-88 specifically recognizes the deoxyhypusine or hypusine forms of eIF5A, immunoblots of reactions in which recombinant human eIF5A was incubated in vitro with DHS, DHH, spermidine, and/or the potent DHS inhibitor GC7 were performed. Referring now to FIG. 1A. […] Increasing the DHS concentration and time of incubation led to increasing eIF5A signal intensity in these studies (data not shown).

293T cells = assay: GC7 treatment of transfected 293T cells, immunoblot of cell extracts; type: cell-based, human
Method: (§2) Cell culture, transfection and DHS inhibition—Human 293T and rat INS-1(832/13) β cells were cultured as described. Cells were transiently transfected with plasmids encoding EGFP-eIF5A, EGFP-eIF5A(K50A) and EGFP-DHS constructs using Lipofectamine 2000 (Invitrogen) for 16 hours before cell extraction or immunofluorescence analysis. The DHS inhibitor GC7 (Biosearch Technologies) was prepared and used in cell culture as previously described.
as §1
Referring now to FIG. 1D. When 293T cells are transfected with GFP-eIF5A, a weak but detectable signal corresponding to GFP-eIF5A is observed using IU-88 (lane 1).

INS-1 β cells = assay: GC7 treatment of transfected INS-1 cells, immunoblot of cell extracts; type: cell-based, rat; conditions: increasing GC7 concentrations, FIG. 1E
Method: as §2, §1
Referring now to FIG. 1E.

eIF5A signal intensity (IU-88 immunoblot) (DHS; co-incubation with 300 nM GC7, FIG. 1A lanes 3 and 6): reduction in eIF5A signal intensity | inhibition of eIF5A signal intensity (IU-88 immunoblot) (DHS; higher concentrations of GC7 up to 10 μM, FIG. 1B): near-complete inhibition
SMILES: NCCCCCCCN=C(N)N [GC7]
GFP-eIF5A signal detected by IU-88 (293T cells; 293T cells co-transfected with GFP-DHS, GC7, FIG. 1D lanes 5 and 6): corresponding decrease in the presence of GC7 | GFP-eIF5A signal detected by IU-88 (293T cells; 293T cells transfected with GFP-eIF5A, increasing concentrations of GC7, FIG. 1D lanes 2 and 3): signal decreases further | endogenous eIF5A signal recognized by IU-88 (293T cells; 293T cells, increasing GC7): observed to decrease with increasing GC7 | GFP-eIF5A signal observed with IU-88 (INS-1 β cells): reduces the GFP-eIF5A signal observed with IU-88 | signal observed with the pan-anti-eIF5A antibody (INS-1 β cells): also reduces the signal observed with the pan-anti-eIF5A antibody
